In PubChem BioAssay (NCI):
Several values for one entry are separate records, joined by “and”; a condition that tells them apart may be missing. Equal values may be shown once.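 Compound exposure: 48 hours, 5 concentrations, 96-well plates. Abbreviation: GI50, concentration required for 50% inhibition of growth. Definition used: TGI = concentration required for complete inhibition of growth.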

What was measured:
Experiment in all cases: DTP human tumour cell line panel, 48 h
[1] = system: SF-539 CNS
[2] = system: A549 NSCLC
[3] = system: IGROV1 ovarian
[4] = system: SF-268 CNS
[5] = system: HL-60(TB) leukemia
[6] = system: UACC-257 melanoma
[7] = system: HCT-15 colon
[8] = system: BT-549 breast
[9] = system: HCC-2998 colon
[10] = system: EKVX NSCLC

| Compound | GI50 [1] [µM] | TGI [1] | GI50 [2] [µM] | TGI [2] | GI50 [3] [µM] | TGI [3] | GI50 [4] [µM] | TGI [4] | GI50 [5] [µM] | TGI [5] | GI50 [6] [µM] | TGI [6] | GI50 [7] [µM] | TGI [7] | GI50 [8] [µM] | TGI [8] | GI50 [9] [µM] | TGI [9] [µM] | GI50 [10] [µM] | TGI [10] |
| --- | --- | --- | --- | --- | --- | --- | --- | --- | --- | --- | --- | --- | --- | --- | --- | --- | --- | --- | --- | --- |
| O=C1/C(=C/c2ccc(Cl)cc2Cl)N=C(c2ccccc2)N1Cc1ccco1 | 23.7 | 55.6 µM | 27.1 | 71 µM | 18.6 | 51 µM | 20.2 | 49.5 µM | 18.3 | 52.3 µM | 36.5 | > 100 µM | 37.7 | > 100 µM | 27.4 | 87.9 µM | 26.7 | 76.1 | 27.3 | 75 µM |
| Cc1nn(CN2CCN(C)CC2)c(=S)n1/N=C/c1cccc2ccccc12 | 18.3 | 34.7 µM | 20.6 | 46.7 µM | 19.4 | 55.1 µM | 24.5 | 68.2 µM | 16.7 | 37 µM | 22.2 | 44.6 µM | 16 | 33.5 µM | 21.1 | 47.3 µM | 20.9 | 39 | 31.8 | > 100 µM |
| CC[CH2][Pb]([CH2]CC)([CH2]CC)[O]C(=O)C(F)(F)F | 0.156 | 0.424 µM | 0.172 | 0.563 µM | 0.177 | 0.627 µM | 0.156 | 0.43 µM | 0.0446 | 0.247 µM | 0.154 | 0.455 µM | 0.124 | 0.587 µM | 0.222 | 0.707 µM | 0.163 | 0.343 | – | – |
| COc1cc2c3c(n(C)c(=O)c2cc1OC)-c1cc2c(cc1/C3=C\CCCN1C(=O)c3ccccc3C1=O)OCO2 | 8.99 | > 40 µM | 22 | > 40 µM | – | – | 14.2 | > 40 µM | – | – | > 40 | > 40 µM | > 40 | > 40 µM | 8.26 | > 40 µM | – | – | 5.2 | > 40 µM |
| NCC(=O)NS(=O)(=O)OC[C@H]1O[C@@H](n2cnc3c(N)ncnc32)[C@H](O)[C@@H]1O | 1.43 | 3.58 µM | 2.32 | 5.27 µM | 3.04 | 7.68 µM | 0.503 | 5.65 µM | 2.78 | 6.95 µM | – | – | 2.92 | 10.1 µM | 2.34 | 5.56 µM | 2.04 | 4.34 | 2.58 | 8.88 µM |
| C[C@]12CC[C@H](O)CC1=CC[C@@H]1[C@@H]2CC[C@]2(C)C(c3cccnc3)=CC[C@@H]12 | 8.31 | > 100 µM | > 100 | > 100 µM | > 100 | > 100 µM | 15.7 | > 100 µM | > 100 | > 100 µM | > 100 | > 100 µM | 25.8 | > 100 µM | 21.7 | > 100 µM | > 100 | > 100 | 6.08 | > 100 µM |
| N#C/C(=C1C=C/C(=N/O)C(Br)=C/1)c1ccccc1 | 1.09 | 2.75 µM | 3.48 | > 100 µM | 2.16 | 12.2 µM | 2.18 | 11.7 µM | 2.16 | 6.31 µM | 6.61 | 55.9 µM | 2.41 | > 100 µM | 9.59 | 27.3 µM | 5.02 | 20.7 | – | – |
| Cn1c(N2NC(=O)C(N=Nc3ccc(S(N)(=O)=O)cc3)C2=O)nc(-c2ccco2)c(C#N)c1=O (centres undefined) | > 50 | > 50 µM | > 50 | > 50 µM | > 50 | > 50 µM | 15.6 | > 50 µM | 5.04 | 18.4 µM | > 50 | > 50 µM | 8.44 | 22.1 µM | 8.67 | 40.6 µM | – | – | 35.7 | > 50 µM |
| CCCCC/C(C=C(C#N)C#N)=C/c1ccccc1 | 5.17 | 17.7 µM | 8.95 | > 43.6 µM | 8.18 | 27.7 µM | 2.45 | 9.51 µM | 2.39 | 6.32 µM | 17.2 | 47.6 µM | 5.13 | 27.5 µM | 2.52 | 8.75 µM | 4.69 | 9.77 | 5.98 | > 55.7 µM |
| COc1ccc(C2=NN(C(=O)c3cc(OC)c(OC)c(OC)c3)C(c3ccc(C#N)cc3)C2)cc1OC (centres undefined) | 0.882 | – | 2.32 | > 100 µM | 1.18 | 18.9 µM | 2.52 | > 66.6 µM | 1.85 | 6.01 µM | 6.4 | > 53.2 µM | 1.48 | > 64.8 µM | 2.98 | > 33.1 µM | 2.16 | 6.63 | 4.59 | > 100 µM |
| CC1=C(C(=O)Nc2ccc3[nH]ncc3c2)C(c2ccc3ccccc3c2)CC(=O)N1 (centres undefined) | 9.18 | > 25 µM | > 25 | > 25 µM | 8.08 | > 25 µM | 11.5 | > 25 µM | > 25 | > 25 µM | > 25 | > 25 µM | > 25 | > 25 µM | 4.11 | > 25 µM | > 25 | > 25 | > 17.9 | > 25 µM |
| COc1ccc2c(c1)c(-c1nc(-c3cn(C)c4ncccc34)cs1)cn2CCCN1CCCCC1 | 1.75 | 3.22 µM | 1.87 | 3.46 µM | 1.74 | 3.46 µM | 1.6 | 3.21 µM | 1.81 | 3.62 µM | 1.92 | 3.66 µM | 1.53 | 2.96 µM | 4.91 | 19.5 µM | 1.56 | 3.06 | 1.67 | 3.17 µM |
| CN(C)CCNc1cc(-c2ccccc2)nc2ccccc12 | 8.22 | 22.7 µM | 4.83 | 43.5 µM | 6.57 | 35.1 µM | 4.98 | 22.7 µM | 4.58 | 22.3 µM | 11.5 | 26.7 µM | 4.48 | 62.5 µM | 11.5 | 28.8 µM | 10.2 | 25.1 | – | – |
| Cc1ccc2c(c1)C(=O)/C(=C/c1ncc([N+](=O)[O-])n1C)O2 | 2.26 | 6.19 µM | 2.74 | 9.29 µM | 1.96 | > 23.7 µM | 1.93 | 5.53 µM | 1.88 | 9.71 µM | 1.98 | 5.65 µM | 0.369 | 8.78 µM | 1.95 | 5.48 µM | 2.29 | 5.4 | – | – |
| COc1cc(/C=C/c2cc(/C=C/c3ccc(O)c(OC)c3)n(-c3ccccc3)n2)ccc1O | – | – | 0.405 | 2.16 µM | 0.532 | 4.02 µM | – | – | 0.271 | 0.774 µM | 1.22 | 4.72 µM | – | – | 0.631 | 22.8 µM | 0.605 | 2.46 | 1.12 | 3.7 µM |
| O=[N+]([O-])/C=C\c1ccc(Cl)c(Cl)c1 | 3.83 | 18.2 µM | 2.37 | 5.43 µM | 0.602 | 2.02 µM | 2.42 | 6.97 µM | 2.15 | 10.5 µM | 1.4 | 2.89 µM | 3.23 | 17 µM | 4.15 | 14.9 µM | – | – | 4.01 | 17.5 µM |
| CSc1cc(N=Nc2nc3ccccc3s2)c2ccccc2c1O | 0.0413 | 3.87 µM | 12.1 | 28.1 µM | 7.64 | 24.3 µM | 7.87 | 17.4 µM | 0.906 | 25.5 µM | 11.6 | 21.7 µM | 8.31 | 20.2 µM | 6.28 | 14 µM | – | – | 7.2 | 16.4 µM |
| COc1cnc2cc(C(=O)O)c3c([N+](=O)[O-])cccc3c2c1 | – | – | – | > 100 µM | – | > 100 µM | – | > 100 µM | – | > 100 µM | – | > 100 µM | – | > 100 µM | – | > 100 µM | – | > 100 | – | > 100 µM |
| O=C(CI)NC1Oc2ccccc2-c2oc(=O)c(-c3ccccc3)cc21 (centres undefined) | 1.73 | 3.13 µM | 2.36 | 6.16 µM | – | – | 1.68 | 3.36 µM | 2.09 | 4.94 µM | 2.07 | 4.84 µM | – | – | 1.7 | 3.24 µM | 8.46 | 26.6 | – | – |
| CCOC(=O)/C=C(/C(=O)OCC)n1cc(Cl)c(=O)n(CC(=O)OCC)c1=O | 16.9 | 9.69 µM and 32.7 µM | 23.4 | 18.1 µM and 67 µM | 17.8 | 9.25 µM and 37.1 µM | 24 | 12.2 µM and 41.4 µM | 11.2 | 9.97 µM and 37.2 µM | 20.7 | 25 µM and 57.9 µM | 19 | 10.5 µM and 40.1 µM | – | 10.6 µM and 37.8 µM | – | – | 23.4 | 10.3 µM and 53.1 µM |
| CN1CCN(Cc2ccc(NC(=O)c3cncc(C#Cc4cnc(N)c5ccc(C#N)cc45)c3)cc2C(F)(F)F)CC1 | 0.101 | 0.598 µM | 0.0353 | 0.919 µM | – | – | 0.0497 | 0.859 µM | 0.0483 | 1.05 µM | 0.136 | 3.09 µM | 0.122 | 0.787 µM | 0.729 | 10.8 µM | 0.901 | 11.1 | 0.185 | 6.13 µM |
| CCc1c(Oc2ccc(C(C)=O)cc2)c2ccccc2[nH]c1=O | 15.7 | 38.6 µM | 18.5 | 59.5 µM | 28.8 | > 100 µM | 18.1 | 61 µM | – | – | 14.5 | 55.1 µM | 16.4 | 96.8 µM | 17.6 | 70.8 µM | 14.3 | 30 | 9.65 | > 66 µM |
| O=C1CNCCCN2CCN(CCCNCC(=O)Nc3ccc(cc3)S(=O)(=O)c3ccc(cc3)NC(=O)CNCCCN3CCN(CCCNCC(=O)Nc4ccc(cc4)S(=O)(=O)c4ccc(cc4)N1)CC3)CC2 | – | 44.6 µM | – | > 100 µM | – | > 69.7 µM | – | > 55.4 µM | – | – | – | 32.7 µM | – | > 54.8 µM | – | 58.4 µM | – | 42.7 | – | > 100 µM |
| Cn1cc(-c2cnc3ccc(NC(=O)Nc4ccc(F)c(Br)c4)cc3n2)cn1 | 1.75 | 3.4 µM | 1.77 | 4.85 µM | 1.6 | 3.49 µM | 2.38 | 7 µM | – | – | 1.92 | 4.57 µM | 1.92 | 4.45 µM | 1.51 | 3.24 µM | 1.79 | 3.5 | 2.55 | 7.96 µM |
| CCNCCNc1cc(-c2ccc(C(=O)OC)cc2)c(C#N)c2nc3ccccc3n12 | 1.74 | 3.33 µM | 1.46 | 5.01 µM | 2.38 | > 100 µM | 2.54 | 16.2 µM | 1.11 | 2.93 µM | 1.87 | 3.71 µM | 1.47 | 4.65 µM | – | – | 2.3 | > 100 | 4.07 | > 100 µM |
| CCCCN(CCCC)C(=O)C(=O)C(C#N)c1ccc(C)cc1 (centres undefined) | – | > 100 µM | – | > 100 µM | – | > 100 µM | – | > 100 µM | – | > 100 µM | – | > 100 µM | – | > 100 µM | – | – | – | > 100 | – | > 100 µM |
| Cc1ccc(CS/C(=C\c2ccc([N+](=O)[O-])cc2)C(=O)c2ccc(F)cc2)cc1 | 3.22 | 10.8 µM | 49.1 | > 100 µM | 4.49 | 31.3 µM | 4.13 | 20.7 µM | 2.9 | 17.3 µM | 5.61 | 19.9 µM | – | – | 1.92 | 4.38 µM | 2.73 | 8.42 | 4.72 | 24 µM |
